In PMC7581941, “Schedule-Dependent Synergy Between the Histone Deacetylase Inhibitor Belinostat and the Dihydrofolate Reductase Inhibitor Pralatrexate in T-and B-cell Lymphoma Cells in vitro” (Frontiers in Cell and Developmental Biology, 2020):
“And” between values parts separate entries of the source, which are not always exact repeats. Identical values can stand only once. Like-named read-outs stand apart in the source and are kept apart here.

Key:
[1] = biological target: T1, FRβ (Homo sapiens, UniProt P14207); assay: Intact cell binding assay, displacement of radio-active folic acid from CHO-FRβ cells; conditions: folic acid set at 1
T1 construct: expressed in transfected cells; host or cells: CHO-FRβ cells
Method: (§1) In order to determine to which extent PLX was a substrate for either the folate receptors, RFC or PCFT we used competition experiments in cell lines overexpressing either transporter ([Westerhof et al., 1995a], [b]; [Jansen et al., 1997]; [Ifergan et al., 2008]; [Lasry et al., 2008]; [van der Heijden et al., 2009]). For FRα and FRβ, we used an intact cell binding assay for competitive binding with KB cells and CHO-FRβ cells, respectively. […] For RFC we used a competition assay with 5 μM [^3H]-l-LV in CCRF-CEM/7A cells (RFC+++) for 2 min at 37°C. CEM-7A cells overexpress the RFC 30-fold over wild-type CCRF-CEM cells ([Jansen et al., 1990], [1997]).

[2] = tested on: SUDHL-4 cells; assay: Cell growth inhibition (cell counting) and median-drug effect analysis, SUDHL-4; assay type: cell-based; conditions: Homo sapiens, SU-DHL-4, read-out: IC50 (50% growth inhibition); SUDHL 4, 72 h exposure
[3] = biological target: T2, RFC (Homo sapiens, UniProt P41440); assay: RFC competition assay: inhibition of [3H]-l-LV uptake in CCRF-CEM/7A cells (RFC+++); assay type: cell-based
T2 construct: CEM-7A cells overexpress the RFC 30-fold over wild-type CCRF-CEM cells; endogenous in cells; host or cells: CCRF-CEM/7A (CEM-7A) cells
T2 sequence (P41440 1-591): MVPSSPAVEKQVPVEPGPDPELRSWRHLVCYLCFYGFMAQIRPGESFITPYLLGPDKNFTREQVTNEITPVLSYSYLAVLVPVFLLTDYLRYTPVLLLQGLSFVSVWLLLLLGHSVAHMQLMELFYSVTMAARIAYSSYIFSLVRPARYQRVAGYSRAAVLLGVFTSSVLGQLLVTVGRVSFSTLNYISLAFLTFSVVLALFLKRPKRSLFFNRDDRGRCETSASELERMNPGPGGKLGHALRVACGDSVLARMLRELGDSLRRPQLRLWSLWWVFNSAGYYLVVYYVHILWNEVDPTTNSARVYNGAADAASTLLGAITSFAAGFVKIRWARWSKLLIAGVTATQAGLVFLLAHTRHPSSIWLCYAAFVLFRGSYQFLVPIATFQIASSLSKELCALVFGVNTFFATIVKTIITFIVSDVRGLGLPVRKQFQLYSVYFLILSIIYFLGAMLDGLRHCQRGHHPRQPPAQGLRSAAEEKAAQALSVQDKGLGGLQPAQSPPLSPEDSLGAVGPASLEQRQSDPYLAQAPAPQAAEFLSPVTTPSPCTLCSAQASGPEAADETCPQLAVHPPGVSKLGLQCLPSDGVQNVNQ
Method: For FRα and FRβ, we used an intact cell binding assay for competitive binding with KB cells and CHO-FRβ cells, respectively. […] For RFC we used a competition assay with 5 μM [^3H]-l-LV in CCRF-CEM/7A cells (RFC+++) for 2 min at 37°C.
Transport was determined by evaluation of the uptake of 5 μM [^3H]-l-LV for 2 min in CCRF-CEM-7A cells, which overexpress RFC. […] Values are from one representative experiment in triplicate; performed three times. Error bars represent SEM, when not visible, they are within the size of the marker.

[4] = tested on: cell proliferation; design: method as in Tonner et al., 2006; conditions: ref Tonner et al., 2006; cited from earlier work
[5] = tested on: Hut-29; assay: Cell growth inhibition (MTT) and median-drug effect analysis, Hut-29; assay type: cell-based; conditions: read-out: IC50 (50% growth inhibition); Hut-29, 72 h exposure
Method: (§2) Cells were treated immediately with a drug dilution series in cell culture medium (75 μL/well). After an incubation period of approximately 72 h, growth in the 96-wells plates was assessed by adding 15 μL MTT solution (stock solution 5 mg/ml in PBS, final concentration 0.5 mg/ml in culture medium) to each well. After incubation for 3 h in the 5% CO2 incubator with 100% humidity at 37°C, 150 μL acidified 2-propanol was added to the plates to dissolve the formazan crystals. The yellow-colored MTT stock solution is taken up and reduced to a purple formazan in living cells, which directly correlates to the amount of viable cells. As final step, the plates were measured at 540 (or 492) nm by the SPECTRAfluor spectrophotometer.
(§3) Drug interaction in combination experiments was evaluated using the median-drug effect analysis using CalcuSyn software ([Bijnsdorp et al., 2011]). In order to evaluate combination indexes [CI] from different experiments, the CI values at Fraction Affected (FA) values >0.5 (preferably around 0.5, 0.75, and 0.9) were averaged for each specific experiment. The means of the separate experiments were subsequently averaged so that a mean ± Standard Error of the Mean (SEM) was calculated from three or more separate experiments. […]

[6] = tested on: Jeko-1; assay: Cell growth inhibition (MTT) and median-drug effect analysis, Jeko-1; assay type: cell-based; conditions: Homo sapiens, read-out: IC50 (50% growth inhibition); Jeko-1, 72 h exposure
Method: Cells were plated in 96-wells flat bottom plates, at 3,000 or 6,000 cells per well in culture medium (75 μL/well) or in 24-wells plates (60,000 cells/well) for the counting assays for which a Coulter Counter was used. Cells were treated immediately with a drug dilution series in cell culture medium (75 μL/well). […] After incubation for 3 h in the 5% CO2 incubator with 100% humidity at 37°C, 150 μL acidified 2-propanol was added to the plates to dissolve the formazan crystals. The yellow-colored MTT stock solution is taken up and reduced to a purple formazan in living cells, which directly correlates to the amount of viable cells. As final step, the plates were measured at 540 (or 492) nm by the SPECTRAfluor spectrophotometer. […] Drug interaction in combination experiments was evaluated using the median-drug effect analysis using CalcuSyn software ([Bijnsdorp et al., 2011]). […] The means of the separate experiments were subsequently averaged so that a mean ± Standard Error of the Mean (SEM) was calculated from three or more separate experiments. […] Drug combinations were designed based on the standard CalcuSyn approach in which a series of drug concentrations were combined in a fixed molar ratio, based on the IC50 of each drug. […]

[7] = biological target: T3, PCFT (Homo sapiens, UniProt Q96NT5); assay: PCFT competition assay: inhibition of [3H]-l-LV influx in CHO-cells lacking RFC and transfected with PCFT; assay type: cell-based
T3 construct: expressed in transfected cells; host or cells: CHO cells lacking RFC
T3 sequence (Q96NT5 1-459): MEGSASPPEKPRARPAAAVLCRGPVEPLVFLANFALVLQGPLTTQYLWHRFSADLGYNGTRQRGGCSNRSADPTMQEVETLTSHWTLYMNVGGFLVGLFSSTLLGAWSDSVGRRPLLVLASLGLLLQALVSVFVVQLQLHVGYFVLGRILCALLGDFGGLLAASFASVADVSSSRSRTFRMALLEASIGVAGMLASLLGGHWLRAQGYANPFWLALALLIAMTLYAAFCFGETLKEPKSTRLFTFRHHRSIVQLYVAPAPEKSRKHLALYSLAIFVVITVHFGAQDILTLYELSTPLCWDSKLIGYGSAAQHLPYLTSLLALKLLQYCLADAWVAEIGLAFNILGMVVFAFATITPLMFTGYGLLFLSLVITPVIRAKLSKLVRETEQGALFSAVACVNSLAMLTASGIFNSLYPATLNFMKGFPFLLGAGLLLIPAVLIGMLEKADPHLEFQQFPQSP
Method: The affinity for PCFT of PLX was assessed in competition with 2.5 μM ^3H-l-LV at pH 5.5 in CHO-cells lacking RFC and transfected with PCFT. […] […] Also for PCFT relative affinities were expressed as the concentration of unlabeled drug necessary to inhibit [^3H]-LV influx.

[8] = tested on: CCRF-CEM; assay: Cell growth inhibition (MTT), CCRF-CEM; assay type: cell-based, human
Method: as §2

[9] = tested on: Karpas-299; assay: Cell growth inhibition (MTT) and median-drug effect analysis, Karpas-299; assay type: cell-based; conditions: Homo sapiens, read-out: IC50 (50% growth inhibition); Karpas-299, 72 h exposure
Method: as §2, §3

[10] = tested on: HT cells; assay: FACS propidium iodide staining: cell cycle distribution and cell death, HT; assay type: cell-based; conditions: drugs at their IC50, untreated 3.5%
Method: (§4) Propidium iodide staining (DNA staining) was used to determine cell cycle distribution and the extent of cell death. Cells (120,000 per well in a 24-wells plate) were exposed to PLX or BLS or the combination for 24, 48, or 72 h. Cells were harvested, suspended in 1.0 ml phosphate buffered saline/1% Bovine serum albumin and fixed with 70% ethanol. After centrifugation the pellet was resuspended in hypotonic propidium iodide (0.1 mg/ml), Triton-X-100 (0.1%), sodium citrate (1 mg/ml) and RNAse A (0.5 mg/ml) (final concentrations in saline) and stored in dark on ice for 30 min ([De Wilt et al., 2012]). DNA content of the cells to determine cell cycle effects and cell kill was analyzed by a FACScalibur (Becton Dickinson Immunocytometry Systems, San Jose, CA, United States) with an acquisition of 10,000 events as described previously ([De Wilt et al., 2012]).

[11] = tested on: SUDHL-5 cells; assay: Cell growth inhibition (MTT) and median-drug effect analysis, SUDHL-5; assay type: cell-based
Method: as §2
Drug interaction in combination experiments was evaluated using the median-drug effect analysis using CalcuSyn software ([Bijnsdorp et al., 2011]). In order to evaluate combination indexes [CI] from different experiments, the CI values at Fraction Affected (FA) values >0.5 (preferably around 0.5, 0.75, and 0.9) were averaged for each specific experiment. The means of the separate experiments were subsequently averaged so that a mean ± Standard Error of the Mean (SEM) was calculated from three or more separate experiments. […] Drug combinations were designed based on the standard CalcuSyn approach in which a series of drug concentrations were combined in a fixed molar ratio, based on the IC50 of each drug. A variation of this approach was a sequential scheduling in which cells were exposed for 72 h to BLS, while in the combination PLX was added after 24 h and cells were exposed from 24 to 72 h. In the non-fixed ratio approach one drug was used at the IC25 (concentration that results in 25% growth inhibition) and the other drug was added in a concentration range.

[12] = tested on: SUDHL-4 cells; assay: FACS propidium iodide staining: cell death, SUDHL-4; assay type: cell-based; conditions: drugs at their IC50, untreated 5.0%
Method: as §4

[13] = tested on: lymphoma cell lines; assay: Cell growth inhibition and median-drug effect analysis, panel of lymphoma cell lines; assay type: cell-based; conditions: 72 hr exposure, panel of cell lines; read-out: IC50, range over the cell lines
Method: Cells were plated in 96-wells flat bottom plates, at 3,000 or 6,000 cells per well in culture medium (75 μL/well) or in 24-wells plates (60,000 cells/well) for the counting assays for which a Coulter Counter was used. Cells were treated immediately with a drug dilution series in cell culture medium (75 μL/well). […] After incubation for 3 h in the 5% CO2 incubator with 100% humidity at 37°C, 150 μL acidified 2-propanol was added to the plates to dissolve the formazan crystals. The yellow-colored MTT stock solution is taken up and reduced to a purple formazan in living cells, which directly correlates to the amount of viable cells. As final step, the plates were measured at 540 (or 492) nm by the SPECTRAfluor spectrophotometer. […] Drug interaction in combination experiments was evaluated using the median-drug effect analysis using CalcuSyn software ([Bijnsdorp et al., 2011]). […] The means of the separate experiments were subsequently averaged so that a mean ± Standard Error of the Mean (SEM) was calculated from three or more separate experiments. […] Drug combinations were designed based on the standard CalcuSyn approach in which a series of drug concentrations were combined in a fixed molar ratio, based on the IC50 of each drug. A variation of this approach was a sequential scheduling in which cells were exposed for 72 h to BLS, while in the combination PLX was added after 24 h and cells were exposed from 24 to 72 h.

[14] = tested on: HT cells; assay: Cell growth inhibition (cell counting) and median-drug effect analysis, HT; assay type: cell-based; conditions: for IC50: HT
[15] = biological target: T4, FRα (Homo sapiens, UniProt P15328); assay: Intact cell binding assay, displacement of radio-active folic acid from KB cells; conditions: inverse ratio of compound to displace 50% of radio-active folic acid, folic acid set at 1
T4 construct: endogenous in cells; host or cells: KB cells
Method: as §1

T4 sequence (P15328 25-257): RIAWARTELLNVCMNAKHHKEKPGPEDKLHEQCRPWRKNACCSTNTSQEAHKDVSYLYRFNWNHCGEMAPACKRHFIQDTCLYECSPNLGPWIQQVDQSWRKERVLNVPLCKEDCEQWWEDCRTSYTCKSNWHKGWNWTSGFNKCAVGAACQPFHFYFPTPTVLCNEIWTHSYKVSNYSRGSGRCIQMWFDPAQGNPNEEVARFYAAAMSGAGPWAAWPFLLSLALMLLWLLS
T1 sequence (P14207 17-255, species assumed): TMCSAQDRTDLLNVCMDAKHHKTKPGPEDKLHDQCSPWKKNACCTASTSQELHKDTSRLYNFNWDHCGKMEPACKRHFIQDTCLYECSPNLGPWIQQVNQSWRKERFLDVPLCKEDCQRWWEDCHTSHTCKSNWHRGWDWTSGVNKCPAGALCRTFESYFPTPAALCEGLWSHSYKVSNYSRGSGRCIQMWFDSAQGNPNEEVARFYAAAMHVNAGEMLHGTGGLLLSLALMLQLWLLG

FRβ relative affinity [1]: < 0.001
IC50 [2]: 5.6 ± 0.4 nM
RFC substrate affinity, fold better compared to methotrexate [3]: 6 fold
RFC substrate affinity, fold better than levoleucovorin (l-LV) [3]: 2 fold
IC50 ([3]; 5 μM [3H]-l-LV, 2 min, 37°C, CCRF-CEM/7A cells, read-out: RFC: concentration of unlabeled drug necessary to inhibit [3H]-l-LV uptake by 50%): 2800 ± 100 nM
IC50 ([7]; 2.5 μM [3H]-l-LV, pH 5.5, 3 min, 37°C, read-out: PCFT: concentration of unlabeled drug necessary to inhibit [3H]-LV influx): 15000 nM and 14800 nM
substrate for PCFT at physiological pH ([7]; pH 7.4): very poor substrate
IC50 ([8]; Homo sapiens, read-out: IC50 (50% growth inhibition), CCRF-CEM, 72 h exposure): 2.6 ± 0.4 nM
IC50 [9]: 24.7 ± 5.3 nM
IC50 ([11]; Homo sapiens, SU-DHL-5, read-out: IC50 (50% growth inhibition), SUDHL 5, 72 h exposure): 5.5 ± 0.9 nM
IC50 [13]: 2.8 to 20 nM
FR-α relative affinity [15]: 0.0035 and 0.0035 ± 0.0005
SMILES: C#CCC(Cc1cnc2nc(N)nc(N)c2n1)c1ccc(C(=O)N[C@@H](CCC(=O)O)C(=O)O)cc1 (stereo partly shown) [PLX, Pralatrexate]
potency in suppressing cell proliferation relative to methotrexate [4]: one log more potent
IC50 [5]: 2.8 ± 0.5 nM
IC50 [6]: 18.7 ± 4.2 nM
reversal of cytotoxicity by l-LV ([8]; 5 μM l-LV, CEM cells): 2965 fold
accumulation of cells in the sub-G1 phase (cell death) [10]: 13%
IC25 (concentration that results in 25% growth inhibition) ([11]; SUDHL-5 cells, 72 h): ~4 nM
accumulation of cells in the sub-G1 phase (cell death) [12]: 22.1%
IC25 (concentration that results in 25% growth inhibition) ([14]; HT cells, 72 h): ~5 nM
IC50 ([14]; Homo sapiens, 72 h, read-out: IC50 (50% growth inhibition), HT, 72 h exposure): ~10 nM
IC50 ([14]; read-out: IC50 (50% growth inhibition), 72 h exposure): 7.4 ± 0.5 nM
